# Source: ChEMBL document CHEMBL1201862, “PubChem BioAssay data set” (2004)
# Calls of active or inactive are those of the source.
# Tests used:
# [1] = biological target: Troponin, cardiac muscle (Homo sapiens, UniProt P19429+P45379+P63316); experiment: Fluorescence-based biochemical high throughput dose response assay for activators of the calcium sensitivity of cardiac Regulated Thin Filaments (RTF). [Related pubchem assays (depositor defined):AID493008, AID493018, AID504382, AID504383]; type: protein-complex assay
# [2] = system: Vero; experiment: cells; type: functional; conditions: Chlorocebus sabaeus
# [3] = biological target: T1, Polyadenylate-binding protein 1 (Homo sapiens, UniProt P11940); experiment: PABP1 MLLE–PAM2 interaction inhibitors, dose response, miRNA deadenylation inhibitor project, biochemical, fluorescence polarization, Cy5-PAM2 peptide, secondary (AID 602260); type: functional; conditions: read-out: IC50_Mean
# T1 sequence (P11940 whole entry): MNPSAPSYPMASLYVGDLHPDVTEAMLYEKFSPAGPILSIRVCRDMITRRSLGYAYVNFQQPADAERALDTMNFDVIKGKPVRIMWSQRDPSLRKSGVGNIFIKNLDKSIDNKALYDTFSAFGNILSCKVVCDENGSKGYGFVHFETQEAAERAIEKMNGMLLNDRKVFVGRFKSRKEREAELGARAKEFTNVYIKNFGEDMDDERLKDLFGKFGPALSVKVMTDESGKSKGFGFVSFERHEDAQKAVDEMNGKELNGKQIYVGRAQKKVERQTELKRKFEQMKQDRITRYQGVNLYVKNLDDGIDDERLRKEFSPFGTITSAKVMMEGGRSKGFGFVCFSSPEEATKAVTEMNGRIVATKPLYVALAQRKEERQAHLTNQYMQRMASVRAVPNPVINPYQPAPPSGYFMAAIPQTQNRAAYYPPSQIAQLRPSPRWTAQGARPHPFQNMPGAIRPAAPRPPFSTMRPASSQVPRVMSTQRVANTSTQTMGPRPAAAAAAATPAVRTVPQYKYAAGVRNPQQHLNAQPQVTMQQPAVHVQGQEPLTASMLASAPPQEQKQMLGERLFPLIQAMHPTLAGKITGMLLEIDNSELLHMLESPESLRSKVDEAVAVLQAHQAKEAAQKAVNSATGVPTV
# [4] = biological target: T2, Heat shock factor protein 1 (Mus musculus, UniProt P38532); experiment: HSF1 potentiators in luciferase reporter cells, confirmation, cell-based, NIH3T3, luminescence, dose retest (AID 435004); type: functional;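 note: stress induced by proteasome inhibitor MG132 added 30 min after compound; luciferase reporter driven by HSF1 response element in NIH3T3 cells; actives raise luminescence as potentiators of the MG132 stress response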
# T2 sequence (P38532 whole entry): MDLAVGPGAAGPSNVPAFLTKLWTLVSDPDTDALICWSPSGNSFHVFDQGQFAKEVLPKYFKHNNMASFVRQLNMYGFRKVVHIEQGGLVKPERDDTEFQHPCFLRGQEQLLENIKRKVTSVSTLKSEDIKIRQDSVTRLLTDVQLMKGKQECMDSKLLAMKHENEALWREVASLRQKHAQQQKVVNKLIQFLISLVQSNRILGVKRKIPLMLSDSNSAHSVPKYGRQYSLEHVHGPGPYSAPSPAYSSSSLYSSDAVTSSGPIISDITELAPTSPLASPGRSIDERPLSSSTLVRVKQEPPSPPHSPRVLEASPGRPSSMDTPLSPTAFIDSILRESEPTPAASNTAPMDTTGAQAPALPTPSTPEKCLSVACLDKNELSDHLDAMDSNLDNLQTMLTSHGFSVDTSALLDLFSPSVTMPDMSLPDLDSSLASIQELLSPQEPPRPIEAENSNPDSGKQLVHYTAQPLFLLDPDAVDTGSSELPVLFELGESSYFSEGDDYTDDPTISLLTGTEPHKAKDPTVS
# [5] = cytotoxicity toward NIH3T3 fibroblasts, dose response, counter-screen, cell-based, ATP luminescence, mouse fibroblasts (AID 2010); type: functional;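 note: cells exposed to compound for about 90 hours before reading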
# [6] = inhibitors of intracellular T. cruzi replication, confirmation, NIH3T3 host cells, beta-gal luminescence (AID 2044); type: functional, cell-based;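 note: intracellular parasites grown in NIH/3T3 mouse fibroblasts as host cells; luminescent beta-galactosidase reporter signal from transgenic T. cruzi replicating inside host cells; inhibitors lower the luminescence signal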
# [7] = biological target: Genome polyprotein (dengue virus type 2, UniProt P29990); experiment: Dengue-2 NS5 methyltransferase inhibitors, primary screen, biochemical, confirmation dose response (AID 588689); type: functional
# Chain of Genome polyprotein (P29990 2492-3391 limits assumed): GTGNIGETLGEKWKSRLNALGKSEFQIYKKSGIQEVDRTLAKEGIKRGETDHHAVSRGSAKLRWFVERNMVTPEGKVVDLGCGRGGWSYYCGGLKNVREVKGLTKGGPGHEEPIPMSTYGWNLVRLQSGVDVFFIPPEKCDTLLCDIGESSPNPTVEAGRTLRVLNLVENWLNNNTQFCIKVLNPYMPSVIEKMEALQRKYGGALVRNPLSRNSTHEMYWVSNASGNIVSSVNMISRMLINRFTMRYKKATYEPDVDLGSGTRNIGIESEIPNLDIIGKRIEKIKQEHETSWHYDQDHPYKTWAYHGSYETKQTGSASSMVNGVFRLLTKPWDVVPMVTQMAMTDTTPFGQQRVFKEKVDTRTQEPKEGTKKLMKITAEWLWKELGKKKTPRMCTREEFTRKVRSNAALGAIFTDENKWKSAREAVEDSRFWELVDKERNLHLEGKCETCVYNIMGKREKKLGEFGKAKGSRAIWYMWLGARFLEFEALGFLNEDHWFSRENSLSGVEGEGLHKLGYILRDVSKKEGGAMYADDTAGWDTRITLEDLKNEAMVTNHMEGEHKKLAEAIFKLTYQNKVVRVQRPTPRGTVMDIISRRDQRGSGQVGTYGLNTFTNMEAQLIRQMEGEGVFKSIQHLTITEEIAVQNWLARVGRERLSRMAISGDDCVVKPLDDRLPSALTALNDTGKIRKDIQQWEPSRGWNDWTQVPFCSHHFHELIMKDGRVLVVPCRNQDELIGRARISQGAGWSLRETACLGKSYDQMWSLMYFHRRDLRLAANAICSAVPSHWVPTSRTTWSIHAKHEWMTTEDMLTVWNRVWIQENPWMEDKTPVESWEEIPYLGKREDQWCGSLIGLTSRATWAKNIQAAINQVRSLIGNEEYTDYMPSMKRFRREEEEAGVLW
# [8] = biological target: T1, Polyadenylate-binding protein 1; experiment: PABP1 MLLE–PAM2 binding inhibitor potency, dose response, biochemical, fluorescence polarization, FITC-PAM2 peptide (AID 602259); type: functional; conditions: read-out: IC50_Mean
# [9] = biological target: Heat shock protein HSP 90-alpha (Homo sapiens, UniProt P07900); type: functional, organism-based
# [10] = Luminescence Cell-Based Dose Retest to Confirm Inhibitors of Cancer Stem Cells. [Related pubchem assays (depositor defined):AID2717, AID2721]; type: functional; conditions: Homo sapiens
# [11] = biological target: T3, High affinity choline transporter 1 (Homo sapiens, UniProt Q9GZV3); experiment: CHT inhibitors, dose response, cell-based, 5-point CRC, membrane potential dye (AID 504840); type: functional
# T3 sequence (Q9GZV3 whole entry): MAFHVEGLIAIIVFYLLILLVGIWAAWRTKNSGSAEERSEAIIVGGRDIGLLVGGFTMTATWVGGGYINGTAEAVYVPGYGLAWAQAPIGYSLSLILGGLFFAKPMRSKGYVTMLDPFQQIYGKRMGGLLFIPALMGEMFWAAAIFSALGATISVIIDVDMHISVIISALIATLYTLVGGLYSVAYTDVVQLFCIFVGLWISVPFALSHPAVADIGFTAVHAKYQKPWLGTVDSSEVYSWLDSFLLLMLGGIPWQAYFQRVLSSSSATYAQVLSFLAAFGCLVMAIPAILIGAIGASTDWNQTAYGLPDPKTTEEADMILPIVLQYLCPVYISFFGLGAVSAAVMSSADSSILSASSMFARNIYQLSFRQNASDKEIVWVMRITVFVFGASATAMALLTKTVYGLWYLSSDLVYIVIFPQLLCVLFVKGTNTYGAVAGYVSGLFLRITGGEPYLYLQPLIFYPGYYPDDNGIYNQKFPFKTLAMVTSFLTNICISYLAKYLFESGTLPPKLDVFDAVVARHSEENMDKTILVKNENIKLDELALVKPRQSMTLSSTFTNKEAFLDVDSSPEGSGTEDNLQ
# [12] = system: Vero; experiment: Vero cell cytotoxicity, cytotoxicity control for flavivirus capping enzyme inhibitors (AID 588742); type: functional; conditions: Chlorocebus sabaeus
# [13] = biological target: T4, Mannose-6-phosphate isomerase (Homo sapiens, UniProt P34949); experiment: PMI enzyme inhibitors, confirmation, biochemical, fluorescence intensity (AID 1535)
# T4 sequence (P34949 whole entry): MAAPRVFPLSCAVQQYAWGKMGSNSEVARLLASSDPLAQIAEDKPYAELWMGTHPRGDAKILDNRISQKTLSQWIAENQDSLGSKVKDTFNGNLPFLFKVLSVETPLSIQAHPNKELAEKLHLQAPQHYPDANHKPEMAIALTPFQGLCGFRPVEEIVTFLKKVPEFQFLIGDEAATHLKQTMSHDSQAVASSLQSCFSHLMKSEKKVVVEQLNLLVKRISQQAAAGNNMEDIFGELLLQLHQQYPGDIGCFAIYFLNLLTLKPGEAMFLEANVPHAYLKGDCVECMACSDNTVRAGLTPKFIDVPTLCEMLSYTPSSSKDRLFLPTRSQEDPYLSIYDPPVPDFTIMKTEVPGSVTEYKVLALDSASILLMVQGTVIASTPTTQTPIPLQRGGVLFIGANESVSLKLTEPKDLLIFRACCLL
# [14] = system: HeLa; experiment: HeLa cell cytotoxicity, dose response, cytotoxicity control, 24 h, cherry-picked samples (AID 504726); type: functional, cell-based; conditions: Homo sapiens;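 note: potency for cytotoxicity as loss of luminescence signal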
# [15] = biological target: T5, Cytochrome P450 1A2 (Homo sapiens, UniProt P05177);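 note: PubChem cytochrome P450 panel assay, CYP1A2 panel member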
# T5 sequence (P05177 whole entry): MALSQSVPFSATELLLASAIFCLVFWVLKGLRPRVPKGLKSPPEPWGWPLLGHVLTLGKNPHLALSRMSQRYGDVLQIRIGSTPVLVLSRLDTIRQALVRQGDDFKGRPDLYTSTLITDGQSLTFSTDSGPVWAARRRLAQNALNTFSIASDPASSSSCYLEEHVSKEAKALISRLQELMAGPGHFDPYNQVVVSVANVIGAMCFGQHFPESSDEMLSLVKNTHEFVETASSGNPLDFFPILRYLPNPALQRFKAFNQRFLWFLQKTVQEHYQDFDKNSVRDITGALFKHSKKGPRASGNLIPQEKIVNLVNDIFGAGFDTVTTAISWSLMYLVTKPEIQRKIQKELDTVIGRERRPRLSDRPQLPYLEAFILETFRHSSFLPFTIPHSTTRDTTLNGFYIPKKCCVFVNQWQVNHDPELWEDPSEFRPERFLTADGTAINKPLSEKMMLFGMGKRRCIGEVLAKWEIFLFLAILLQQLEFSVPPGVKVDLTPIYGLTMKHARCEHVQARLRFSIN
# [16] = biological target: T6, Cytochrome P450 3A4 (Homo sapiens, UniProt P08684); conditions: Potency
# T6 sequence (P08684 whole entry): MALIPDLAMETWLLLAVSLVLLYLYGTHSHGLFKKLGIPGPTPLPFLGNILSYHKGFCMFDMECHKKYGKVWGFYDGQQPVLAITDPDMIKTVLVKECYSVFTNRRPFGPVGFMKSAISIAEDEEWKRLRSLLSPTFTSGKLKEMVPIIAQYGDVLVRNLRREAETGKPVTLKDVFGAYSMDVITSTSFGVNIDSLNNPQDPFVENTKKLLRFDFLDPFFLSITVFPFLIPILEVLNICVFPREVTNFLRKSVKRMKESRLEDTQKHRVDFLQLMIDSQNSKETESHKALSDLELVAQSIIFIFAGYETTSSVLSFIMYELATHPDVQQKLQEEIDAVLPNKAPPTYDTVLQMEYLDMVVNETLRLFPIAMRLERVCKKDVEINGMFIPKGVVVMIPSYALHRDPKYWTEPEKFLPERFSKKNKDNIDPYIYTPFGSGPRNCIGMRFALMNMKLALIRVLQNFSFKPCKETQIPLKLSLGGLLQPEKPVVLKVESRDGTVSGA
# [17] = biological target: Cytochrome P450 2D6 (Homo sapiens, UniProt P10635);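 note: CYP2D6 member of a cytochrome P450 panel assay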
# Chain of Cytochrome P450 2D6 (P10635 whole entry): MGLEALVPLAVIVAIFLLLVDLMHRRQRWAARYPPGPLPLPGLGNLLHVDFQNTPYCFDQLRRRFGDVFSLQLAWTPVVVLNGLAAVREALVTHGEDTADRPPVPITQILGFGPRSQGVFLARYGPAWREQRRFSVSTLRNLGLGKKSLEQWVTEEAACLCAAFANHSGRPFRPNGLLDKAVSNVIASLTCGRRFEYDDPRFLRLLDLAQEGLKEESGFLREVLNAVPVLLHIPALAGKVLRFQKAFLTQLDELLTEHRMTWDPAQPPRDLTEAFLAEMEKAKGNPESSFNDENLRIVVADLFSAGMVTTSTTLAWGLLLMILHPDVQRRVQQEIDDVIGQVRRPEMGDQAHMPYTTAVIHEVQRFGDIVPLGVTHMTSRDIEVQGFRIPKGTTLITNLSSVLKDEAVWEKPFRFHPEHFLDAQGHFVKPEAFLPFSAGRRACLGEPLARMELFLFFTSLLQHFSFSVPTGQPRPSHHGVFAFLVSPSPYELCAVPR
# [18] = biological target: Large T antigen (Simian virus 40, UniProt P03070); type: functional, Betapolyomavirus macacae;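 note: Confirmatory-stage PubChem screen for compounds that inhibit SV40 T antigen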
# Chain of Large T antigen (P03070 whole entry): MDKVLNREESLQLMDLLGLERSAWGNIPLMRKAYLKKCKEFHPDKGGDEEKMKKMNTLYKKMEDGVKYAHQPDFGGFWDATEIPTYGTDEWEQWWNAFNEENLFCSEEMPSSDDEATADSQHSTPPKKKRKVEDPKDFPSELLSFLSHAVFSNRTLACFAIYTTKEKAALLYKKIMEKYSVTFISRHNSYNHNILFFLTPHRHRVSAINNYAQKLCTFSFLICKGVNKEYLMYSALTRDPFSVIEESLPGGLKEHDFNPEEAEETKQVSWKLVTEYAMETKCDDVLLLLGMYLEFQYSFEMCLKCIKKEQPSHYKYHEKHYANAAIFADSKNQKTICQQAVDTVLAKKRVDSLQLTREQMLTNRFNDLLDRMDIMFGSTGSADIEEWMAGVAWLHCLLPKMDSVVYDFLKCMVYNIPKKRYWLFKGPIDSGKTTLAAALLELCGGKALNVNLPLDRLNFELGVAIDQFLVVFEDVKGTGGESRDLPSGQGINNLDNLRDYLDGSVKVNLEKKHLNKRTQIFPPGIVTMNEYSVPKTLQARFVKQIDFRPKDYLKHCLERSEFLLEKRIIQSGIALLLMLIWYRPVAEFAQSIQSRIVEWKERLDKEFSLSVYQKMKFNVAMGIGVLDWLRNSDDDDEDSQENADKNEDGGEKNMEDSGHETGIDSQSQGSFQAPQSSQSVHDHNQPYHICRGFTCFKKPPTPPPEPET
# [19] = biological target: T6, Cytochrome P450 3A4
# [20] = biological target: T7, Phosphomannomutase 2 (Homo sapiens, UniProt O15305); experiment: Counter screen SAR assay for PMM2 inhibitors via a fluorescence intensity assay. [Related pubchem assays (depositor defined):AID1545, AID1574]
# T7 sequence (O15305 whole entry): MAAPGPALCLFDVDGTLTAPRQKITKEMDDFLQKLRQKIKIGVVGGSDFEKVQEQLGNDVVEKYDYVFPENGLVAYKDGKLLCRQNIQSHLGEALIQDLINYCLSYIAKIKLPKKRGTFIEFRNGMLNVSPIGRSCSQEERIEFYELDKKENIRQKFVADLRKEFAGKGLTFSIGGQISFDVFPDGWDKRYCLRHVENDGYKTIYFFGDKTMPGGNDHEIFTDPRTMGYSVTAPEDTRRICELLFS
# [21] = biological target: T8, Bcl-2-like protein 10 (Homo sapiens, UniProt Q9HD36); experiment: displacers of TR3 peptide from Bcl-B, primary screen, selectivity assay for Bfl-1 inhibitor project, biochemical, fluorescence polarization, FITC-TR3 peptide (AID 748);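 note: fluorescence polarization from a fluorescein-labelled TR3 peptide binding purified Bcl-B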
# T8 sequence (Q9HD36 whole entry): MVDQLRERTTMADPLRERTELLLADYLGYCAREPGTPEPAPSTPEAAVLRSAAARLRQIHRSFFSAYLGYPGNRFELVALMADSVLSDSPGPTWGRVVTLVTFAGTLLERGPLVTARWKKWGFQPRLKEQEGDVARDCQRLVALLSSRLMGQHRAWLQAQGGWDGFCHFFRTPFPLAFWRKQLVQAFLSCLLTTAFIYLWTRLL
# [22] = biological target: T9, Estrogen receptor beta (Homo sapiens, UniProt Q92731);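 note: recombinant ER-beta bound to coactivator SRC1 peptide in presence of estradiol agonist; inhibitors block coactivator peptide binding and lower the FRET signal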
# T9 sequence (Q92731 whole entry): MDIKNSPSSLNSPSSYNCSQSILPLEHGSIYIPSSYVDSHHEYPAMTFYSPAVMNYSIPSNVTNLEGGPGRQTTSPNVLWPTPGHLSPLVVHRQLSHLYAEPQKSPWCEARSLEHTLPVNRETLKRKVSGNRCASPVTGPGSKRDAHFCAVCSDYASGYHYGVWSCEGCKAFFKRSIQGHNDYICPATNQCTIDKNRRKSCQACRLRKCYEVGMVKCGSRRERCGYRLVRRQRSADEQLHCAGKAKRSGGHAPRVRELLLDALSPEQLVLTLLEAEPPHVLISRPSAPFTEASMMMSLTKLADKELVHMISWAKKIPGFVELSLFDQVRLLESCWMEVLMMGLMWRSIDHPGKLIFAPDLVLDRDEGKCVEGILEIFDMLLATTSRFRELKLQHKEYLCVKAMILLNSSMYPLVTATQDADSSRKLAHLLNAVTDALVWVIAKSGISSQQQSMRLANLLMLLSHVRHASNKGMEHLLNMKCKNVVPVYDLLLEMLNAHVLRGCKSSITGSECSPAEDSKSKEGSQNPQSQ
# [23] = biological target: T9, Estrogen receptor beta; experiment: ERβ–SRC-3 coactivator interaction inhibitors, confirmation, orthogonal assay, biochemical, ELISA, streptavidin-HRP readout (AID 1060)
smiles,measurement,setting,value
COc1ccccc1NC(=O)COC(=O)c1cnc(C)cn1,EC50,[1],> 71.5 µM (inactive)
CC(C)(C)c1ccc(C(=O)CC(Sc2ccc(Cl)cc2)C(=O)O)cc1 (stereo unspecified),CC50,[2],23.2 µM (active)
same,IC50,[3],> 66 µM (inactive)
same,EC50,[4],137 µM (active)
same,EC50,[5],> 60 µM (not active)
same,EC50,[6],2.02 µM (active)
same,IC50,[7],38.1 µM (active)
same,IC50,[8],> 66 µM (inactive)
same,AC50,[9],4.71 µM (active)
same,AC50,[10],4.12 µM (active)
same,IC50,[11],12.6 µM (active)
same,CC50,[12],35.9 µM (active)
Cc1cnc(/N=c2\ssnc2Cl)cn1,IC50,[13],> 100 µM (inactive)
CCN(Cc1ccccc1)S(=O)(=O)c1cc(C(=O)NC2CCCCCC2)ccc1OC,IC50,[11],0.575 µM (active)
CC(C)N(C(S)=Nc1cccnc1)c1ccccc1,AC50,[14],> 350 µM (inactive)
Cc1c(C(=O)NCCSCc2cccc(C(F)(F)F)c2)cnn1-c1ccc(Cl)cc1,AC50,[9],7.25 µM (active)
CC(=O)NCCc1c[nH]c2ccc(O)cc12 [ACETYLSEROTONIN],AC50,[15],15.8 µM (inconclusive)
same,AC50,[16],25.1 µM (inconclusive)
same,AC50,[17],15.8 µM (inconclusive)
same,IC50,[18],21.7 µM (active)
same,AC50,[19],7.94 µM (inconclusive)
CS(=O)(=O)c1ccc2nc(-n3sc4ccccc4c3=O)sc2c1,IC50,[13],> 50 µM (inactive)
same,IC50,[20],> 100 µM (inactive)
CNS(=O)(=O)c1ccc(N/C=C2/C(=O)NC(=O)N(c3ccccc3)C2=O)cc1,EC50,[1],> 71.5 µM (inactive)
CCCCN(CCCC)CCNC(=O)c1cn(CC)c2ccc(S(=O)(=O)N(C)C3CCCCC3)cc2c1=O,IC50,[11],15.8 µM (active)
CC(C)[C@H](NC(=O)c1ccccc1F)C(=O)NC1CCCCCCC1,AC50,[14],135 µM (active)
O=C(NCc1nnc(SCC(=O)N2CCCCCC2)o1)c1ccco1,EC50,[1],> 71.5 µM (inactive)
CC(=O)NC(=NOCc1ccc(Br)cc1)c1nonc1NC(C)=O,AC50,[14],> 350 µM (inactive)
CCN(Cc1ccccc1)S(=O)(=O)c1cc2nc(O)c(O)nc2cc1C,AC50,[14],> 350 µM (inactive)
COCCN1CCn2c(nc3cc(NC(=O)NC4CCCCC4)ccc32)C1,IC50,[21],> 12.5 µM (inactive)
Cc1cc2n(n1)SC(Nc1ccc(F)cc1)N2 (stereo unspecified),IC50,[13],> 50 µM (inactive)
same,IC50,[20],> 100 µM (inactive)
COc1ccc(NC(=O)c2cnn3c(C(F)(F)F)cc(-c4ccco4)nc23)cc1OC,IC50,[21],66.8 µM (inactive)
CCOc1ccc(C(=O)OCC(=O)NCc2ccco2)cc1OCC,IC50,[22],> 50 µM (not active)
same,IC50,[23],0.113 µM (not active)
same,IC50,[21],> 100 µM (inactive)
